For data set [1] the following is noted: cited from earlier work; for reduction of free fatty acids (in words): test animals, low dosage between 0.5 and 30 mg/kg body weight.
The next data set in a line: in vivo. The following applies: rat.
Data set [2] in a line: Triglyceride reduction in rats on high-fat diet. Format: in vivo, female Wistar rats. Conditions: Rattus norvegicus, high fat diet 3 weeks, blood 18 hours after last dose, read-out: Triglyc. Red. in %. As for the experimental part: (§1) Additionally, experiments on female Wistar rats were carried out. For a period of 3 weeks the animals received a special diet with a very high fat content. Starting from the second week, half the rats were treated with a dosage of 100 and 25 mg/kg body weight. After the third week blood samples were taken 18 hours after administration of the last dose. Triglyceride and cholesterol concentrations were compared with that of the untreted animals. Cholesterol and triglycerides were determined with the aid of the Boehringer enzymatic test.

A short description of data set [3]: Cholesterol reduction in rats on high-fat diet. It counts as in vivo, female Wistar rats. The following applies: Rattus norvegicus, read-out: Chol. Red. in %. On the procedure: as §1
The next data set is described as follows: ED50 in rat (Table 1). It counts as in vivo.
Where [4] appears, read: 100 mg/kg, high fat diet 3 weeks, blood 18 hours after last dose.
The mark [5] stands for this setting: high fat diet 3 weeks, blood 18 hours after last dose.

The values below come from US4412998A, “Certain 4-(1-piperidino)-phenyl-nicotinates” (Merz & Company, priority 1979, dated 1983).

SMILES strings stand for the structures.

In the case of `CC(C)(Oc1ccc(Cl)cc1)C(=O)OCc1cccnc1` [3-pyridyl carbinol ester of clofibric acid], the “influence on lipids (in words)” value in data set [1] (background) was “effective lipid- and cholesterol-lowering component”.

In the case of `OCc1cccnc1` [3-pyridyl carbinol], the “reduction of free fatty acids (in words)” value in data set [1] was “great reduction of the free fatty acids”.

The LD50 is the dose at which mortality reaches 50%. Read a high LD50 as a less toxic substance. The term ED50 denotes the dose that gives a 50% effect, or the effect in half of the subjects. Regarding `O=C(Oc1ccc(C2CCCCC2)cc1)c1cccnc1` [Example 1, p-cyclohexylphenyl nicotinate], in the data set “in vivo”, the LD50 turned out to be 2200 mg/kg and the selectivity ratio came out at 44. The inhibition in vivo at 100 mg/kg in data set [2] is 19%. Also, in data set [3] (setting [4]), the inhibition in vivo at 100 mg/kg worked out at 45%. This compound also returned an ED50 in the data set “ED50 in rat (Table 1)” of 50 mg/kg.

`O=C(Oc1ccc(C23CC4CC(CC(C4)C2)C3)cc1)c1cccnc1` [Example 2, p-(1-adamantylphenyl)-nicotinate]: in the data set “in vivo”, the LD50 turned out to be 3200 mg/kg and the selectivity ratio worked out at 47. Also, the inhibition in vivo at 100 mg/kg in data set [2] was determined as 47%. Moreover, the inhibition in vivo at 100 mg/kg in data set [3] (setting [4]) came out at 28%. Moreover, the ED50 in “ED50 in rat (Table 1)” amounted to 68 mg/kg.

For the compound `CC(C)(Oc1ccc(Cl)cc1)C(=O)Oc1ccc(C(=O)CC23CC4CC(CC(C4)C2)C3)cc1` [Example 3, 2-(p-chlorophenoxy)-isobutyric acid-p-(1-adamantylacetyl)-phenyl ester], the inhibition in vivo at 100 mg/kg in data set [2] stood at 35%; in data set [3] (setting [4]) it was 27%.

Turning to `Cl.O=C(Oc1ccccc1C1CCCCC1)c1cccnc1` [Example 6, o-cyclohexylphenyl nicotinate hydrochloride], the LD50 in the data set “in vivo” worked out at 2050 mg/kg. In addition, in the data set “in vivo”, the selectivity ratio worked out at 93. The results for the inhibition in vivo at 25 mg/kg in data set [2] and in data set [3] (setting [5]) were 16% and 18%, respectively. In “ED50 in rat (Table 1)”, this compound displayed a 50% effective dose (ED50) of 22 mg/kg.

Consider `O=C(Oc1cccc2c1CCCC2)c1cccnc1` [Example 7, 5,6,7,8-Tetrahydro-1-naphthyl-nicotinate], for which the figures for the inhibition in vivo at 100 mg/kg in data set [2] and in data set [3] (setting [4]) were 18% and 22%, respectively.

On to `CC(C)(C)c1cc(C2CCCCC2)ccc1OC(=O)c1cccnc1` [Example 8, 2-t-butyl-4-cyclohexylphenyl nicotinate], for which, in the data set “in vivo”, the LD50 came to 1700 mg/kg and the selectivity ratio is 56. In addition, in data set [2], the inhibition in vivo at 25 mg/kg is 8%. The inhibition in vivo at 25 mg/kg in data set [3] (setting [5]) stood at 9%. In “ED50 in rat (Table 1)”, it took a dose of 30 mg/kg to reach the 50% effect level (ED50).

For the compound `CC(C)(c1ccccc1)c1ccc(OC(=O)c2cccnc2)cc1` [Example 9, p-cumylphenyl nicotinate], the results for the inhibition in vivo at 100 mg/kg in data set [2] and in data set [3] (setting [4]) were 1% and 24%, respectively.

With `O=C(Oc1ccc(C(=O)c2ccc(Cl)cc2)cc1)c1cccnc1` [Example 10, p-chlorobenzoylphenyl nicotinate], the inhibition in vivo at 100 mg/kg in data set [3] (setting [4]) was 29%.

As for `O=C(O)c1cccnc1` [Nicotinic acid, nicotinic acid, reference compound], in the data set “in vivo”, the 50% lethal dose (LD50) was 4000 mg/kg and the selectivity ratio was found to be 8. The inhibition in vivo at 100 mg/kg in data set [3] (18 h) was 7%. Besides, the ED50 in “ED50 in rat (Table 1)” is about 500 mg/kg. Further, in data set [1] (background), the “influence on lipids (in words)” value is “act predominantly on elevated cholesterol values and free fatty acids”; the “side effects (in words)” value is listed as “flush, headache, nausea, vomiting”. For the same compound, in data set [1], the “reduction of free fatty acids (in words)” value was “great reduction of the free fatty acids”.

In the case of `CCOC(=O)C(C)(C)Oc1ccc(Cl)cc1` [clofibrate, ethyl ester of 2-(p-chlorophenoxy)-isobutyric acid, reference compound], the LD50 in “in vivo” came out at 1500 mg/kg. Further, in data set [2], the inhibition in vivo at 100 mg/kg came out at 8%. The ED50 in the data set “ED50 in rat (Table 1)” is about 300 mg/kg. Moreover, in data set [1] (in vivo), the “cases with cholesterol (CH) in the β- and α-lipoproteins further increased” value is on record as “about 20%”; the “fall of the initial values of triglycerides (TG) and pre-β-lipoproteins” value was “up to 50%”.
